This data set in a line: Brain exposure experiments in mice. The following applies: 1 hour after exposure. The data set is classed as in vivo, mouse. As for the experimental part: Brain exposure experiments were performed wherein mice were exposed to Compound Example 4 at an IV dosage of 1 mg/kg (Table 5).
Where [1] appears, read: IV 1 mg/kg, individual mice (7, 8, 9), 1 mg/kg.

Several values for one entry are separate records, joined by “and”; a condition that tells them apart may be missing. Identical values can stand only once. Like-named read-outs stand apart in the source and are kept apart here.

Take `CN1CCC2(CC1)CN(c1ccc(C(=O)Nc3cc(-c4cccs4)ccc3N)cn1)C(=O)O2` [Example 4, N-(2-amino-5-(thiophen-2-yl)phenyl)-6-(8-methyl-2-oxo-1-oxa-3,8-diazaspiro[4.5]decan-3-yl)nicotinamide]: the “brain penetration (in words)” value (IV 1 mg/kg) is “very low brain penetration”. The Brain concentration under setting [1] was 61.9 ng/mL and 0 ng/mL and 73 ng/mL. Also, the Plasma concentration under setting [1] is 1030 ng/mL and 2.22 μM and 1620 ng/mL and 3.50 μM. Also, the concentration at 1 h is, setting by setting: (IV 1 mg/kg, individual mice (7, 8, 9), 1 mg/kg, read-out: Brain concentration) 0.13 µM and 0.00 µM and 0.16 µM; (mouse, brain, iv, 1 mg/kg, Average, read-out: Brain concentration) 67.5 ng/mL and 150 nM; (mouse, plasma, iv, 1 mg/kg, Average, read-out: Plasma concentration) 1440 ng/mL and 3.1 µM; (mouse, plasma, iv, 1 mg/kg, individual mice (7, 8, 9), read-out: Plasma concentration) 1660 ng/mL and 3.59 µM.
